Laboratory results published in ChEMBL document CHEMBL5620394, “Synthesis of new antiproliferative 1,3,4-substituted-pyrrolo[3,2-c]quinoline derivatives, biological and in silico insights” (Eur J Med Chem, 2023).
Activity calls are given as the source filed them. The calls are words filed in the database; no cut-off is given here.

What was measured:
[1] = Growth inhibition of human MCF-10A cells at 50 uM incubated for 24 to 48 hrs by cell counter analysis relative to control; format: toxicity, cell-based; settings: time 24-48 hrs, read-out: GI
[2] = Growth inhibition of human MCF-10A cells at 25 uM incubated for 24 to 48 hrs by cell counter analysis relative to control; format: toxicity, cell-based; settings: time 24-48 hrs, read-out: GI
[3] = Growth inhibition of human MCF-10A cells at 10 uM incubated for 72 hrs by cell counter analysis relative to control; format: toxicity, cell-based; settings: read-out: GI
[4] = Growth inhibition of human MCF-10A cells at 10 uM incubated for 24 hrs by cell counter analysis relative to control; format: toxicity, cell-based; settings: read-out: GI
[5] = tested on: MDA-MB-231; experiment: Growth inhibition of human MDA-MB-231 cells at 50 uM incubated for 72 hrs by cell counter analysis relative to control; format: functional; settings: read-out: GI
[6] = tested on: MCF7; experiment: Growth inhibition of human MCF7 cells at 50 uM incubated for 72 hrs by cell counter analysis relative to control; format: functional; settings: read-out: GI
[7] = tested on: MDA-MB-231; experiment: Growth inhibition of human MDA-MB-231 cells at 50 uM incubated for 24 hrs by cell counter analysis relative to control; format: functional; settings: read-out: GI
[8] = tested on: MCF7; experiment: Growth inhibition of human MCF7 cells at 50 uM incubated for 24 hrs by cell counter analysis relative to control; format: functional; settings: read-out: GI
[9] = tested on: MDA-MB-231; experiment: Growth inhibition of human MDA-MB-231 cells at 25 uM incubated for 72 hrs by cell counter analysis relative to control; format: functional; settings: read-out: GI
[10] = tested on: MCF7; experiment: Growth inhibition of human MCF7 cells at 25 uM incubated for 72 hrs by cell counter analysis relative to control; format: functional; settings: read-out: GI
[11] = tested on: MDA-MB-231; experiment: Growth inhibition of human MDA-MB-231 cells at 25 uM incubated for 24 hrs by cell counter analysis relative to control; format: functional; settings: read-out: GI
[12] = tested on: MCF7; experiment: Growth inhibition of human MCF7 cells at 25 uM incubated for 24 hrs by cell counter analysis relative to control; format: functional; settings: read-out: GI
[13] = tested on: MDA-MB-231; experiment: Growth inhibition of human MDA-MB-231 cells at 10 uM incubated for 72 hrs by cell counter analysis relative to control; format: functional; settings: read-out: GI
[14] = tested on: MCF7; experiment: Growth inhibition of human MCF7 cells at 10 uM incubated for 72 hrs by cell counter analysis relative to control; format: functional; settings: read-out: GI
[15] = tested on: MDA-MB-231; experiment: Growth inhibition of human MDA-MB-231 cells at 10 uM incubated for 24 hrs by cell counter analysis relative to control; format: functional; settings: read-out: GI
[16] = tested on: MCF7; experiment: Growth inhibition of human MCF7 cells at 10 uM incubated for 24 hrs by cell counter analysis relative to control; format: functional; settings: read-out: GI
[17] = tested on: MCF7; experiment: Induction of apoptosis in human MCF7 cells assessed as increase in ROS production at 5 to 25 uM by H2DCFDA staining based flow cytometric analysis; format: functional, cell-based; settings: dose 5-25 µM
[18] = tested on: MCF7; experiment: Inhibition of colony formation in human MCF7 cells incubated for 72 hrs by crystal violet staining assay; format: functional, cell-based
[19] = tested on: MCF7; experiment: Induction of cell cycle arrest in human MCF7 cells assessed as increase in accumulation of cells at G2/M phase at 10 to 25 uM incubated for 72 hrs by propidium iodide staining based flow cytometry analysis; format: functional; settings: dose 10-25 µM
[20] = tested on: MCF7; experiment: Induction of cell cycle arrest in human MCF7 cells assessed as increase in accumulation of cells at G2/M phase at 5 uM incubated for 72 hrs by propidium iodide staining based flow cytometry analysis; format: functional
[21] = tested on: MCF7; experiment: Induction of cell cycle arrest in human MCF7 cells assessed as increase in accumulation of cells at S phase at 25 uM incubated for 72 hrs by propidium iodide staining based flow cytometry analysis; format: functional
[22] = tested on: MCF7; experiment: Induction of cell cycle arrest in human MCF7 cells assessed as decrease in accumulation of cells at G0/G1 phase incubated for 72 hrs by propidium iodide staining based flow cytometry analysis; format: functional
[23] = tested on: MCF7; experiment: Induction of cell cycle arrest in human MCF7 cells assessed as increase in accumulation of cells at sub-G1 phase at 10 uM incubated for 72 hrs by propidium iodide staining based flow cytometry analysis; format: functional
[24] = tested on: MCF7; experiment: Induction of cell cycle arrest in human MCF7 cells assessed as increase in accumulation of cells at sub-G1 phase at 5 uM incubated for 72 hrs by propidium iodide staining based flow cytometry analysis; format: functional
[25] = tested on: K562; experiment: Antiproliferative activity against human K562 cells assessed as cell growth at 10 uM incubated for 48 hrs by sulforhodamine B assay relative to control; format: functional; settings: read-out: Activity
[26] = tested on: MOLT-4; experiment: Antiproliferative activity against human MOLT-4 cells assessed as cell growth at 10 uM incubated for 48 hrs by sulforhodamine B assay relative to control; format: functional; settings: read-out: Activity
[27] = tested on: RPMI-8226; experiment: Antiproliferative activity against human RPMI-8226 cells assessed as cell growth at 10 uM incubated for 48 hrs by sulforhodamine B assay relative to control; format: functional; settings: read-out: Activity
[28] = tested on: SR; experiment: Antiproliferative activity against human SR cells assessed as cell growth at 10 uM incubated for 48 hrs by sulforhodamine B assay relative to control; format: functional; settings: read-out: Activity
[29] = tested on: NCI-H226; experiment: Antiproliferative activity against human NCI-H226 cells assessed as cell growth at 10 uM incubated for 48 hrs by sulforhodamine B assay relative to control; format: functional; settings: read-out: Activity
[30] = tested on: NCI-H522; experiment: Antiproliferative activity against human NCI-H522 cells assessed as cell growth at 10 uM incubated for 48 hrs by sulforhodamine B assay relative to control; format: functional; settings: read-out: Activity
[31] = tested on: SNB-75; experiment: Antiproliferative activity against human SNB-75 cells assessed as cell growth at 10 uM incubated for 48 hrs by sulforhodamine B assay relative to control; format: functional; settings: read-out: Activity
[32] = tested on: UACC-257; experiment: Antiproliferative activity against human UACC-257 cells assessed as cell growth at 10 uM incubated for 48 hrs by sulforhodamine B assay relative to control; format: functional; settings: read-out: Activity
[33] = tested on: CAKI-1; experiment: Antiproliferative activity against human CAKI-1 cells assessed as cell growth at 10 uM incubated for 48 hrs by sulforhodamine B assay relative to control; format: functional; settings: read-out: Activity
[34] = tested on: UO-31; experiment: Antiproliferative activity against human UO-31 cells assessed as cell growth at 10 uM incubated for 48 hrs by sulforhodamine B assay relative to control; format: functional; settings: read-out: Activity
[35] = tested on: PC-3; experiment: Antiproliferative activity against human PC-3 cells assessed as cell growth at 10 uM incubated for 48 hrs by sulforhodamine B assay relative to control; format: functional; settings: read-out: Activity
[36] = tested on: MCF7; experiment: Antiproliferative activity against human MCF7 cells assessed as cell growth at 10 uM incubated for 48 hrs by sulforhodamine B assay relative to control; format: functional; settings: read-out: Activity
[37] = tested on: MDA-MB-231; experiment: Antiproliferative activity against human MDA-MB-231 cells assessed as cell growth at 10 uM incubated for 48 hrs by sulforhodamine B assay relative to control; format: functional; settings: read-out: Activity
[38] = tested on: T47D; experiment: Antiproliferative activity against human T47D cells assessed as cell growth at 10 uM incubated for 48 hrs by sulforhodamine B assay relative to control; format: functional; settings: read-out: Activity
[39] = tested on: A549; experiment: Antiproliferative activity against human A549 cells assessed as cell growth at 10 uM incubated for 48 hrs by sulforhodamine B assay relative to control; format: functional; settings: read-out: Activity
[40] = tested on: EKVX; experiment: Antiproliferative activity against human EKVX cells assessed as cell growth at 10 uM incubated for 48 hrs by sulforhodamine B assay relative to control; format: functional; settings: read-out: Activity
[41] = tested on: HOP-62; experiment: Antiproliferative activity against human HOP-62 cells assessed as cell growth at 10 uM incubated for 48 hrs by sulforhodamine B assay relative to control; format: functional; settings: read-out: Activity
[42] = tested on: HCT-116; experiment: Antiproliferative activity against human HCT-116 cells assessed as cell growth at 10 uM incubated for 48 hrs by sulforhodamine B assay relative to control; format: functional; settings: read-out: Activity
[43] = tested on: HCT-15; experiment: Antiproliferative activity against human HCT-15 cells assessed as cell growth at 10 uM incubated for 48 hrs by sulforhodamine B assay relative to control; format: functional; settings: read-out: Activity
[44] = tested on: KM12; experiment: Antiproliferative activity against human KM12 cells assessed as cell growth at 10 uM incubated for 48 hrs by sulforhodamine B assay relative to control; format: functional; settings: read-out: Activity
[45] = tested on: SF-295; experiment: Antiproliferative activity against human SF-295 cells assessed as cell growth at 10 uM incubated for 48 hrs by sulforhodamine B assay relative to control; format: functional; settings: read-out: Activity
[46] = tested on: MDA-MB-435; experiment: Antiproliferative activity against human MDA-MB-435 cells assessed as cell growth at 10 uM incubated for 48 hrs by sulforhodamine B assay relative to control; format: functional; settings: read-out: Activity
[47] = tested on: IGROV-1; experiment: Antiproliferative activity against human IGROV-1 cells assessed as cell growth at 10 uM incubated for 48 hrs by sulforhodamine B assay relative to control; format: functional; settings: read-out: Activity
[48] = tested on: SK-OV-3; experiment: Antiproliferative activity against human SK-OV-3 cells assessed as cell growth at 10 uM incubated for 48 hrs by sulforhodamine B assay relative to control; format: functional; settings: read-out: Activity
[49] = tested on: ACHN; experiment: Antiproliferative activity against human ACHN cells assessed as cell growth at 10 uM incubated for 48 hrs by sulforhodamine B assay relative to control; format: functional; settings: read-out: Activity
[50] = tested on: MDA-MB-468; experiment: Antiproliferative activity against human MDA-MB-468 cells assessed as cell growth at 10 uM incubated for 48 hrs by sulforhodamine B assay relative to control; format: functional; settings: read-out: Activity
[51] = tested on: LOX IMVI; experiment: Antiproliferative activity against human LOX IMVI cells assessed as cell growth at 10 uM incubated for 48 hrs by sulforhodamine B assay relative to control; format: functional; settings: read-out: Activity

CC(=O)c1c(C)[nH]c2c1c(-c1ccc3c(c1)OCO3)nc1ccccc12
inhibition at 50 µM [1]: 63%
inhibition at 25 µM [2]: 42%
inhibition at 72 h, 10 µM [3]: 11%
inhibition at 24 h, 10 µM [4]: 14%
inhibition of growth at 50 µM [5]: 74%
inhibition of growth at 50 µM [6]: 70%
inhibition of growth at 50 µM [7]: 60%
inhibition of growth at 50 µM [8]: 54%
inhibition of growth at 25 µM [9]: 35%
inhibition of growth at 25 µM [10]: 41%
inhibition of growth at 25 µM [11]: 48%
inhibition of growth at 25 µM [12]: 38%
inhibition of growth at 10 µM [13]: 28%
inhibition of growth at 10 µM [14]: 25%
inhibition of growth at 10 µM [15]: 37%
inhibition of growth at 10 µM [16]: 32%
Activity [17]: Active
inhibition [18]: Dose-Dependent Effect
Activity [19]: Active
Activity [20]: inactive
Activity [21]: Active
Activity [22]: Dose-Dependent Effect
Activity [23]: Active
Activity [24]: Active
growth at 10 µM [25]: 76.8%
growth at 10 µM [26]: 107%
growth at 10 µM [27]: 90.3%
growth at 10 µM [28]: 31.6%
growth at 10 µM [29]: 65.6%
growth at 10 µM [30]: 101%
growth at 10 µM [31]: 46.5%
growth at 10 µM [32]: 73.9%
growth at 10 µM [33]: 58.9%
growth at 10 µM [34]: 26.4%
growth at 10 µM [35]: 75.8%
growth at 10 µM [36]: 41.5%
growth at 10 µM [37]: 82.2%
growth at 10 µM [38]: 70.3%
growth at 10 µM [39]: 81.7%
growth at 10 µM [40]: 88.3%
growth at 10 µM [41]: 67.5%
growth at 10 µM [42]: 84.3%
growth at 10 µM [43]: 69.5%
growth at 10 µM [44]: 74.6%
growth at 10 µM [45]: 91.1%
growth at 10 µM [46]: 42.1%
growth at 10 µM [47]: 60.1%
growth at 10 µM [48]: 88.8%
growth at 10 µM [49]: 92.4%
growth at 10 µM [50]: 59.5%
growth at 10 µM [51]: 86.5%
